# Test results as given in publication PMC12564596 (2025).
# Legend:
# [1] = test system: HS-Apt-PEN (DNA, aptamer) CTGAATTGGATCTCTCTTCTTGAGCGATCTCCACA; test: LSPR on AuNPs, Langmuir fit; conditions: 137 mM NaCl, 2.7 mM KCl; PBS pH 7.4; flow; MCH and salmon sperm DNA passivation; immobilised aptamer
# [2] = test system: HS-Apt-PEN (DNA, aptamer) CTGAATTGGATCTCTCTTCTTGAGCGATCTCCACA; test: QCM-D on gold electrode, Langmuir fit of 3rd harmonic frequency; conditions: 137 mM NaCl, 2.7 mM KCl; PBS pH 7.4; flow; immobilised aptamer; no clear plateau to 500 nM; some non-specific binding likely
# [3] = test system: HS-Apt-OTC (DNA, aptamer) GGGGGCACACATGTAGGTGCTGTCCAGGTGTGGTTGTGGT; test: LSPR and QCM-D selectivity test; conditions: 137 mM NaCl, 2.7 mM KCl; PBS pH 7.4; 100 nM compound
Structure (SMILES),KD [1] [nM],KD [2] [nM],binding [3]
CC1(C)S[C@@H]2[C@H](NC(=O)Cc3ccccc3)C(=O)N2[C@H]1C(=O)O,20,50,–
CN(C)[C@@H]1C(=O)C(C(N)=O)=C(O)[C@@]2(O)C(=O)C3=C(O)c4c(O)cccc4[C@@](C)(O)[C@H]3[C@H](O)[C@@H]12,–,–,yes
